Experimental data from patent publication US20240041889A1, “COMBINATION THERAPY WITH ADENOSINE RECEPTOR ANTAGONISTS” (Teon Therapeutics, Inc., priority 2020, published 2024).

Tests used:
MC38 tumor model = assay: Fibrosis in a MC38 tumor model; assay type: in vivo
CT26 tumor = assay: Combination with anti-PD-1 in a CT26 model; assay type: in vivo, Balb/C mice; details: intraperitoneally for 16 days
Method: Methods: Balb/C inbred female mice, aged at 8-9 week, were purchased from Charles River. On the day of inoculation (Day 0), CT26 cells were harvested, washed and counted. Cells were re-suspended as single cell solution in PBS at a concentration of 5×10^6 cells/mL at the final step. Immediately, five hundred thousand (5×10^5) of CT26 cells suspended in 0.1 mL PBS were injected in the right flank of Balb/C mice subcutaneously using 27G needles. When palpable, tumors were measured by a caliper and tumor volume (mm^3) were calculated by length×width×height×0.5236. Mice with the tumor size approximate to 100 mm^3 were randomly assigned into one of four groups (n=10). Each group received vehicle (BID), A2B antagonist Compound 1 at 3 mg/kg (BID), mouse anti-PD-1 (RMP1-14) at 5 mg/kg (Q2D), or Compound 1 (3 mg/kg)+RMP1-14 (5 mg/kg) intraperitoneally for 16 days. Tumor size and body weight were determined every 2-3 days.

B16F10 tumor = assay: Combination with anti-PD-1 in a B16F10 model; assay type: in vivo, C57BL/6 mice; details: intraperitoneally for 7 days
Method: Methods: C57BL/6 inbred female mice, aged at 8-9 week, were purchased from Charles River. On the day of inoculation (Day 0), B16F10 cells were harvested, washed and counted. Cells were re-suspended as single cell solution in PBS at a concentration of 5×10^6 cells/mL at the final step. Immediately, five hundred thousand (5×10^5) of B16F10 cells suspended in 0.1 mL PBS were injected in the right flank of C57BL/6 mice subcutaneously using 27G needles. When palpable, tumors were measured by a caliper and tumor volumes (mm^3) were calculated by length×width×height×0.5236. Mice with the tumor size approximate to 100 mm^3 were randomly assigned into one of four groups (n=10). Each group received vehicle (BID), A2B antagonist Compound 1 at 1 mg/kg (BID), mouse anti-PD-1 (RMP1-14) at 10 mg/kg (Q3D), or Compound 1 (1 mg/kg)+RMP1-14 (10 mg/kg) intraperitoneally for 7 days. Tumor size and body weight were determined every 2-3 days.

[1] = tested on: tumor-infiltrating immune cells; assay: Mechanistic study in a MC38 model, FACS analysis of tumor tissue; assay type: in vivo, C57BL/6 mice; details: 6 days after drug treatment
Method: Methods: C57BL/6 inbred female mice, aged at 6-8 week, were purchased from Shanghai Lingchang Biotechnology Co., Ltd. On the day of inoculation (Day 0), MC38 cells were harvested, washed and counted. Cells were re-suspended as single cell solution in PBS at a concentration of 1×10^6 cells/mL at the final step. Immediately, […] (1×10^5) of MC38 cells suspended in 0.1 mL PBS were injected in the right flank of C57BL/6 mice subcutaneously using 27G needles. When palpable, tumors were measured by a caliper and tumor volume (mm^3) were calculated by length×width×height×0.5236. Mice with the tumor size approximately to 80-100 mm^3 were randomly assigned into one of four groups (n=8). Each group received vehicle (BID), A2B antagonist Compound 1 at 3 mg/kg (BID), mouse anti-PD-1 (RMP1-14) at 10 mg/kg (Q3D), or Compound 1 (3 mg/kg)+RMP1-14 (10 mg/kg) intraperitoneally. Tumor tissues were collected 6 days after drug treatment and made single cell suspension for FACS analysis to detect tumor-infiltrating immune cells.

## CCCn1c(=O)c2[nH]c(-c3cnn(Cc4cccc(C(F)(F)F)c4)c3)nc2n(CC)c1=O [Compound 1, 8-(1-(3-(Trifluoromethyl)benzyl)-1H-pyrazol-4-yl)-3-ethyl-1-propyl-1H-purine-2,6(3H,7H)-dione]
MC38 tumor model
  fibrosis: reduces fibrosis
CT26 tumor; CT26 model
  effect on mouse body weight: no significant effect
CT26 tumor; Compound 1 3 mg/kg BID, RMP1-14 5 mg/kg Q2D, alone or combined
  maximal CT26 tumor growth inhibition (TGI): 47.5%
B16F10 tumor; B16F10 model
  effect on mouse body weight: no effect
B16F10 tumor; Compound 1 1 mg/kg BID, RMP1-14 10 mg/kg Q3D, alone or combined
  maximal B16F10 tumor growth inhibition (TGI): 48.7%
[1]; Compound 1 3 mg/kg BID i.p.
  increase of the amount of dendritic cells (DCs): 34%
  reduction of the amount of myeloid-derived suppressor cells (MDSCs): 41%
  reduction of the amount of regulatory T cells (Tregs): 28%
[1]; Compound 1 3 mg/kg BID, RMP1-14 10 mg/kg Q3D, alone or combined, i.p.
  increase of the amount of CD8+ T cells: 58%
[1]; Compound 1 3 mg/kg BID, RMP1-14 10 mg/kg Q3D, i.p.
  increase of the amount of CD4+ T cells: 84%
